Experimental data as given in ChEMBL document CHEMBL5143529, “Design, synthesis, and biological evaluation of novel (4-(1,2,4-oxadiazol-5-yl)phenyl)-2-aminoacetamide derivatives as multifunctional agents for the treatment of Alzheimer's disease” (Eur J Med Chem, 2022).
pIC50, pKi: −log10 of the molar value. Calls of active or inactive are those of the source. The calls are words filed in the database; no cut-off is given here.

Columns and labels:
[1] = molecular target: Cholinesterase (Equus caballus) (UniProt P81908); experiment: Mixed type inhibition of equine serum BuChE assessed as decrease in Vmax with increase in Km at 0.5 to 2 uM using varying level of butyrylthiocholine iodide as substrate by Lineweaver-Burk plot double reciprocal analysis; details: dose 0.5-2 µM
in vitro [2] = details: dog, MDCK-MDR1
Description: Apparent permeability across basolateral to apical side in MDCKII-MDR1 cells at 75 uM incubated for 2 hrs

BV-2 [3] = experiment: Inhibition of NF-kappaB in LPS-stimulated mouse BV-2 cells assessed as reduction in translocation of p65 NF-kappaB from cytoplasm to nucleus at 1 to 10 uM pretreated for 1 hr followed by LPS stimulation and measured after 24 hrs; type: cell-based; details: dose 1-10 µM, time 25.0 hrs
PC-12 [4] = experiment: Inhibition of H2O2-induced ROS production in rat PC-12 cells assessed as reduction in ROS accumulation at 1 to 50 uM pretreated for 6 hrs followed by H2O2 stimulation and measured after 18 hrs by DCFH-DA staining based fluorescence assay; type: functional, cell-based; details: dose 1-50 µM, time 24.0 hrs
[5] = Toxicity in C57BL/6 mouse assessed as median lethal dose administered intragastrically for 7 days; details: in vivo, po, time 7 day
[6] = Cytotoxicity against rat PC-12 cells assessed as cell viability at 50 uM incubated for 24 hrs by MTT assay relative to control; type: toxicity, cell-based; details: read-out: Activity
[7] = Metal chelating activity assessed as Cu2+-compound complex formation by measuring reduction in maximum absorbance intensity at 20 uM incubated for 1 hr by UV-visible spectrophotometry
[8] = Inhibition of LPS-induced TNF-alpha secretion in mouse BV-2 cells preincubated for 1 hr followed by LPS stimulation and measured after 24 hrs by ELISA; type: functional, cell-based
Cholinesterase [9] = molecular target: T1, Cholinesterase (Equus caballus, UniProt P81908)
Description: Inhibition of equine serum BuChE using butyrylthiocholine iodide as substrate preincubated for 20 mins followed by substrate addition and measured after 5 mins by DTNB-reagent based Ellman's method

Cholinesterase [10] = molecular target: T1, Cholinesterase; experiment: Mixed type inhibition of equine serum BuChE assessed as inhibition constant using varying level of butyrylthiocholine iodide as substrate by Lineweaver-Burk plot double reciprocal analysis
[11] = Antioxidant activity assessed as DPPH radical scavenging activity at 10 uM incubated for 2 hrs under dark condition by microplate reader method relative to control; type: functional
[12] = molecular target: T2, Inhibitor of nuclear factor kappa-B kinase subunit beta (Mus musculus) (UniProt O88351); experiment: Inhibition of IkappaB activation in LPS-stimulated mouse BV-2 cells pretreated for 1 hr followed by LPS stimulation and measured after 24 hrs by Western blot analysis; type: cell-based; details: dose 1-10 µM, time 25.0 hrs, DDE = dose-dependent effect
T2 sequence (whole entry): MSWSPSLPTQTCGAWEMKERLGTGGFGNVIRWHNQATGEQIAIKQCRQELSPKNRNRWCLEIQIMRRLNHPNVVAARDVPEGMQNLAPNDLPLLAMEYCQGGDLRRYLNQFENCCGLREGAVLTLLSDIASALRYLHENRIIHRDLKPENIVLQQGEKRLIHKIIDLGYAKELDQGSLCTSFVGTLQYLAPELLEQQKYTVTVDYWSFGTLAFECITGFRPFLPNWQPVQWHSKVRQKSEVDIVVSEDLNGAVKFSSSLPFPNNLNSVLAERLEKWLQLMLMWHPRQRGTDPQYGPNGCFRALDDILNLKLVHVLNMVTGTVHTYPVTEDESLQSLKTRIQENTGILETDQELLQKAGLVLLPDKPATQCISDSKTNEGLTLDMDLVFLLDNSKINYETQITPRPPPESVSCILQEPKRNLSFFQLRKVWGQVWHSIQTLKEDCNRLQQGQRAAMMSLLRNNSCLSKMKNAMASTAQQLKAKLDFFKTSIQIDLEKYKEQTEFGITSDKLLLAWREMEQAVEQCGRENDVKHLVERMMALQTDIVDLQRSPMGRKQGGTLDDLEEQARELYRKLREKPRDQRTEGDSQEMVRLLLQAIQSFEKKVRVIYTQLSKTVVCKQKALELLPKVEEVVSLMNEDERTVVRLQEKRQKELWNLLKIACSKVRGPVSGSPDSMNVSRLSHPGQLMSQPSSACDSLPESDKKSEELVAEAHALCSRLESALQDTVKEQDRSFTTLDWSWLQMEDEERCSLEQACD

in vitro [13] = details: dog, MDCK-MDR1; remark: listed apart in the source
Description: Apparent permeability across apical to basolateral side in MDCKII-MDR1 cells at 75 uM incubated for 2 hrs

BV-2 [14] = experiment: Downregulation of iNOS protein expression in LPS-stimulated mouse BV-2 cells preincubated for 1 hr followed by LPS stimulation and measured after 24 hrs by Western blot analysis; type: functional, cell-based; details: dose 1-10 µM, time 25.0 hrs, DDE = dose-dependent effect
[15] = Inhibition of LPS-induced IL-1beta secretion in mouse BV-2 cells preincubated for 1 hr followed by LPS stimulation and measured after 24 hrs by ELISA; type: functional, cell-based
[16] = Antioxidant activity assessed as DPPH radical scavenging activity at 1000 uM incubated for 2 hrs under dark condition by microplate reader method relative to control; type: functional
cells = details: Mus musculus, BV-2
Description: Inhibition of NO production in LPS-induced mouse BV-2 cells pretreated for 1 hr followed by LPS stimulation and measured after 24 hrs by ELISA

[17] = molecular target: Amyloid-beta precursor protein (Homo sapiens) (UniProt P05067); experiment: Inhibition of amyloid beta (1 to 42 ) (unknown origin) self aggregation at 100 uM measured after 48 hrs by transmission electron microscopic analysis
[18] = molecular target: T2, Inhibitor of nuclear factor kappa-B kinase subunit beta (Mus musculus); experiment: Inhibition of IkappaB phosphorylation in LPS-stimulated mouse BV-2 cells pretreated for 1 hr followed by LPS stimulation and measured after 24 hrs by Western blot analysis; type: cell-based; details: dose 1-10 µM, time 25.0 hrs, DDE = dose-dependent effect
[19] = Toxicity in C57BL/6 mouse assessed as abnormal fluctuations in body weight at 10 to 30 mg/kg, IG measured after 7 days; type: organism-based; details: in vivo, po, 168 h, dose 10-30 mg/kg, time 7 day
BV-2 [20] = experiment: Downregulation of COX-2 protein expression in LPS-stimulated mouse BV-2 cells preincubated for 1 hr followed by LPS stimulation and measured after 24 hrs by Western blot analysis; type: functional, cell-based; details: dose 1-10 µM, time 25.0 hrs, DDE = dose-dependent effect
PC-12 [21] = experiment: Neuroprotective activity against H202-induced cell death in rat PC-12 cells assessed as cell viability at 20 uM pretreated for 3 hrs followed by H2O2 stimulation and measured after 24 hrs by MTT assay relative to control; type: functional; details: time 27 hrs, read-out: Activity
SH-SY5Y = experiment: Inhibition of H2O2-induced ROS production in human SH-SY5Y cells assessed as reduction in ROS accumulation at 1 to 50 uM pretreated for 6 hrs followed by H2O2 stimulation and measured after 18 hrs by DCFH-DA staining based fluorescence assay; type: functional, cell-based; details: dose 1-50 µM, time 24.0 hrs
Mus musculus [22] = experiment: Anti-alzheimer activity against scopolamine-induced cognitive dysfunction C57BL/6 mouse model assessed as improvement in cognitive impairment by measuring increase in number of platform crossing at 30 mg/kg, IG administered for 7 days followed by scopolamine stimulation and measured after 4 days by Morris water maze test; type: functional, organism-based; details: time 11.0 day
Mus musculus [23] = experiment: Anti-alzheimer activity against scopolamine-induced cognitive dysfunction C57BL/6 mouse model assessed as reduction in escape latency time administered intragastrically for 7 days followed by scopolamine stimulation and measured after 4 days by Morris water maze test; type: functional, organism-based; details: dose 10-30 mg/kg, route ig, time 11.0 day, DDE = dose-dependent effect
[24] = Cytotoxicity against rat PC-12 cells assessed as cell viability at 25 uM incubated for 24 hrs by MTT assay relative to control; type: toxicity, cell-based; details: read-out: Activity
P-glycoprotein = experiment: in vitro; details: dog, MDCK-MDR1
Description: Substrate activity at P-glycoprotein in MDCKII-MDR1 cells assessed as efflux ratio apparent permeability across basolateral to apical side over apical to basolateral side at 75 uM incubated for 2 hrs

[25] = molecular target: Transcription factor p65 (Mus musculus) (UniProt Q04207); experiment: Inhibition of p65 phosphorylation in LPS-stimulated mouse BV-2 cells at 1 to 10 uM pretreated for 1 hr followed by LPS stimulation and measured after 24 hrs by Western blot analysis; type: cell-based; details: dose 1-10 µM, time 25.0 hrs
PC-12 [26] = experiment: Neuroprotective activity against H202-induced cell death in rat PC-12 cells assessed as cell viability at 5 uM pretreated for 3 hrs followed by H2O2 stimulation and measured after 24 hrs by MTT assay relative to control; type: functional; details: time 27 hrs, read-out: Activity
Acetylcholinesterase = Acetylcholinesterase (Electrophorus electricus, UniProt O42275); experiment: Inhibition of electric eel AChE using acetylthiocholine iodide as substrate preincubated for 20 mins followed by substrate addition and measured after 5 mins by DTNB-reagent based Ellman's method
[27] = Toxicity in C57BL/6 mouse model of scopolamine-induced Alzheimer's disease assessed as changes in swimming speed at 10 to 30 mg/kg, IG measured after 7 days; type: organism-based; details: in vivo, po, 168 h, dose 10-30 mg/kg, time 7 day

T1 sequence (P81908 whole entry): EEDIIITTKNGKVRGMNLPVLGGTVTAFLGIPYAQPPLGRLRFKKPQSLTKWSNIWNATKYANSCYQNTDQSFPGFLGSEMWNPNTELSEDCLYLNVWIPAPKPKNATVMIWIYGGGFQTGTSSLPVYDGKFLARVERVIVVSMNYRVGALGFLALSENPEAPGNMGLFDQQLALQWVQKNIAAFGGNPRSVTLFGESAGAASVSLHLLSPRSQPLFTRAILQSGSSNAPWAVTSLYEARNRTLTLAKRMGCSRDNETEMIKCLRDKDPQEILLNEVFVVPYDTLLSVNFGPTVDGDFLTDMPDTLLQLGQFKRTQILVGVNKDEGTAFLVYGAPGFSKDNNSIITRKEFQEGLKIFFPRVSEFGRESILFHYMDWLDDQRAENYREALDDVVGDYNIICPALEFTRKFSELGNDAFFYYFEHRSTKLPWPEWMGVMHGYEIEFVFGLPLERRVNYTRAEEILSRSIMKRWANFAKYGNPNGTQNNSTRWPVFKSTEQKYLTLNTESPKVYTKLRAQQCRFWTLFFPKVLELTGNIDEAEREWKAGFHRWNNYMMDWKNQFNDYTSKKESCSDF
Acetylcholinesterase, sequence (O42275 whole entry): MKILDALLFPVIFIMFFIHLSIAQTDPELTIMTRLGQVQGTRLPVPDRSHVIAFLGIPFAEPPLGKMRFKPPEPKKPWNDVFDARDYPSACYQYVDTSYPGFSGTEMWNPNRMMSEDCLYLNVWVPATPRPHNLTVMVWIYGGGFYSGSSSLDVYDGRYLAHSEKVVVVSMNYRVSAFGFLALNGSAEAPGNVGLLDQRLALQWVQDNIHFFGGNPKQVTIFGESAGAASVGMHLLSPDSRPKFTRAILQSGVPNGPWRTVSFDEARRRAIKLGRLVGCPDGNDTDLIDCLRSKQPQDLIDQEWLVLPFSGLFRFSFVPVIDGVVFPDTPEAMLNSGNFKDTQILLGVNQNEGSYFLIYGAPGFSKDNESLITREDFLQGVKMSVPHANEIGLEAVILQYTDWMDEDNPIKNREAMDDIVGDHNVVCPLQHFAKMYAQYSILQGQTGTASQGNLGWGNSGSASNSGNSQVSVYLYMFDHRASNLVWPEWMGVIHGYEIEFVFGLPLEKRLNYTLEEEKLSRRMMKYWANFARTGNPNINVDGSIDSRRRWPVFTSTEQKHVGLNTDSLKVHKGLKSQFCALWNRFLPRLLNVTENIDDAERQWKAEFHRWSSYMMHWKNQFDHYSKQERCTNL
Amyloid-beta precursor protein (Homo sapiens), sequence (P05067 whole entry): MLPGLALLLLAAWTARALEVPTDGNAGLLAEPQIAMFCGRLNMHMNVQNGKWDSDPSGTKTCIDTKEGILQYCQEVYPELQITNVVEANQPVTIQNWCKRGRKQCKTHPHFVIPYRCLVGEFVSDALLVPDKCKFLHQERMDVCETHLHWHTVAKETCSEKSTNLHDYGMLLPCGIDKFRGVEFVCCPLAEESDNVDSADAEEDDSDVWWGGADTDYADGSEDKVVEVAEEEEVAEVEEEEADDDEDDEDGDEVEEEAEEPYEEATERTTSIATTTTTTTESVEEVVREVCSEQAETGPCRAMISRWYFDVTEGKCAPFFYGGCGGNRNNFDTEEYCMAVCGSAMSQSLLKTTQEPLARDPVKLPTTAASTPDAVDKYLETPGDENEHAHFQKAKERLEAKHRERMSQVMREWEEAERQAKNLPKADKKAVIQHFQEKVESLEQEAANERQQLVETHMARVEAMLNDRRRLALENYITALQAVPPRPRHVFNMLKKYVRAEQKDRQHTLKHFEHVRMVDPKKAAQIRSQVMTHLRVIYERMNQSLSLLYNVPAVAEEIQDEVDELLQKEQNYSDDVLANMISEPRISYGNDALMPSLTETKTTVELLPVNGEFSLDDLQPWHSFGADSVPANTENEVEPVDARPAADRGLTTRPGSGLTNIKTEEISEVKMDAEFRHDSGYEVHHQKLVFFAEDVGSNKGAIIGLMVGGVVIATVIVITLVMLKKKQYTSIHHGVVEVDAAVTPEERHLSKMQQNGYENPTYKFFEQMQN
Transcription factor p65 (Mus musculus), sequence (Q04207 whole entry): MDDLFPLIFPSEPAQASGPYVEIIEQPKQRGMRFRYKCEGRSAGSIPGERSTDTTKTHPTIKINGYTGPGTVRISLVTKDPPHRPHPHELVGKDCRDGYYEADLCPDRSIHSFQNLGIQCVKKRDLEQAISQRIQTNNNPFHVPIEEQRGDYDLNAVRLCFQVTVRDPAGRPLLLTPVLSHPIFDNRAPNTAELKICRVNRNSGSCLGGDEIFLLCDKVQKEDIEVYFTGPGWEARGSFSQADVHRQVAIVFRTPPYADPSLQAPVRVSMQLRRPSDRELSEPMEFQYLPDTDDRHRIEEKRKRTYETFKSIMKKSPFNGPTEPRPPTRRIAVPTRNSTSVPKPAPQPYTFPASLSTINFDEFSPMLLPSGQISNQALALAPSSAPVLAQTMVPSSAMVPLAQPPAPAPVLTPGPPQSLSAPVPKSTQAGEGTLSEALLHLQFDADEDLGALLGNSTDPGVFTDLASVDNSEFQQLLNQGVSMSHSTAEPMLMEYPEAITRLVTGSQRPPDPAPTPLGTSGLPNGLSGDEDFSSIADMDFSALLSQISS
Cholinesterase (Equus caballus), sequence (P81908 whole entry): as the sequence (P81908 whole entry) above

With `O=C(CNc1ccc(F)cc1)Nc1ccc(-c2nc(-c3ccnc(Nc4ccc(OC(F)(F)F)cc4)c3)no2)cc1` the inhibition [1] was “Active”, the Papp B→A at 2 h, 75 µM (in vitro [2]) was 16.3 ×10⁻⁶ cm/s and the inhibition (BV-2 [3]) was “Active”. For the same molecule, the inhibition (PC-12 [4]) was “Active”, the LD50 at 168 h [5] was 75.4 mg/kg and the viability at 24 h, 50 µM [6] was 98.8%. The Activity [7] was “Active”, the pIC50 [8] was 5.38 and the pIC50 (Cholinesterase [9]) was 5.89. For the same molecule, the pKi (Cholinesterase [10]) was 6.21, the Activity [11] was 86.1% and the inhibition [12] was “Dde”. The Papp A→B at 2 h, 75 µM (in vitro [13]) was 17.2 ×10⁻⁶ cm/s, the Activity (BV-2 [14]) was “Dde” and the pIC50 [15] was 5.79. The Activity [16] was 34.6%, the pIC50 (cells) was 6.17 and the inhibition [17] was “Active”. For the same molecule, the inhibition [18] was “Dde”, the Activity [19] was “Non-Toxic” and the Activity (BV-2 [20]) was “Dde”. For the same molecule, the viability at 20 µM (PC-12 [21]) was 66.4%, the inhibition (SH-SY5Y) was “Active” and the Activity (Mus musculus [22]) was “Active”. For the same molecule, the Activity (Mus musculus [23]) was “Dde”, the viability at 24 h, 25 µM [24] was 99.7% and the efflux ratio at 2 h, 75 µM (P-glycoprotein) was 0.95. For the same molecule, the inhibition [25] was “Active”, the viability at 5 µM (PC-12 [26]) was 46.5% and the pIC50 (Acetylcholinesterase) was less than 4.30. The Activity [27] was “Non-Toxic”.
